The text below walks through data of patent publication US7741294B1, “Non-standard nucleobases implementing the isocytidine and isoguanosine hydrogen bonding patterns” (priority 2005, dated 2010).

Series [1] is described as follows: pKa by spectrophotometric titration. In kind it is physicochemical. The conditions noted are these: pH 2.8 to 13.7, 240-350 nm. The procedure:
The pKa of the nucleoside analog was determined by spectrophotometric titration (pH 2.8 to 13.7) [Kazimierczuk, Z., Shugar, D. (1974) Acta Biochim. Pol., 21, 455-463.1 at 240-350 nm to give values for pK1 and pK2 as 4.3 (±0.1) and 9.9 (±0.2), respectively.

Series [2] in a line: keto:enol tautomeric equilibrium from UV spectra in dioxane:water mixtures, extrapolated to pure water. Format: physicochemical. The conditions noted are these: log fraction of enol vs ET(30), extrapolated to ET(30) of pure water (63.1). The text has this:
The procedure of Voegel et al. [Voegel, J. J., von Krosigk, U., Benner, S. A. (1993) J. Org. Chem., 58, 7542-7547.] was then used to estimate a value of the keto:enol tautomers in pure water for dC7 isoG. This procedure exploits the fact that in nonpolar solvents, the UV spectra for both disoG and C7 isoG shift from their form in pure water (which resembles the N-methylated derivatives) to a form that resembles the UV spectra of the O-methylated derivatives. This is interpreted as evidence that the tautomeric equilibrium shifts from one favoring the keto tautomer in pure water to one favoring the enol tautomer in pure dioxane.
To obtain quantitative data, the ratio of the extinction coefficients at two wavelengths (λ=296 and 255 nm for disoG and λ=305 and 254 nm for dC7 isoG), chosen to maximize the difference between the keto and enol forms, was chosen as a metric for the tautomeric equilibrium constant in dioxane:water mixtures in varying proportions. This was plotted against the Dimroth ET(30) value, which provides a measure of the local dielectric constant [Kosower, E. M. (1958) J. Am. Chem. Soc., 80, 3253-3260] [Dimroth, v. K., Reichardt, C., Siepmann, T., Bohlmann, F. (1963) Liebigs Ann. Chem., 661, 1-37.] [Reichardt, C., Harbusch-Goernert, E. (1983) Liebigs Ann. Chem., 721-743] [Gordon, A., Katritzky, A. R. (1968) Tetrahedron Lett., 23, 2767-2770.] […]

The conditions of series [3]: comparison value for the natural nucleoside; cited from earlier work.

Read-outs that look alike come from different tables or passages of the source.

Consider `Nc1[nH]c(=O)nc2c1ccn2[C@H]1C[C@H](O)[C@@H](CO)O1` [dC7 isoG, 2′-deoxy-7-deaza-isoguanosine], for which, in series [1], the pK1 is 4.3 (±0.1) and the pK2 is 9.9 (±0.2). In addition, the “KTAUT (=[keto]/[enol])” value in series [2] was “≈ 10^3”.

Turning to `Nc1nc2c(ncn2[C@@H]2O[C@H](CO)[C@@H](O)[C@H]2O)c(=O)[nH]1` [guanosine], the “KTAUT (=[keto]/[enol])” value in series [3] is 10^4-10^5.
